Data reported in patent publication US10160762B2, “6-alkyl dihydropyrazolopyrimidinone compounds as PDE2 inhibitors” (Merck Sharp & Dohme Corp., priority 2015, dated 2018).
Read-outs that look alike come from different tables or passages of the source.

Biological target: T1, Rhesus PDE2A3 (Macaca mulatta, UniProt B3VTJ2)
T1 construct: made in house; host or cells: AD293 cells, transient transfection; supernatant of sonicated lysate
T1 sequence (B3VTJ2 1-941): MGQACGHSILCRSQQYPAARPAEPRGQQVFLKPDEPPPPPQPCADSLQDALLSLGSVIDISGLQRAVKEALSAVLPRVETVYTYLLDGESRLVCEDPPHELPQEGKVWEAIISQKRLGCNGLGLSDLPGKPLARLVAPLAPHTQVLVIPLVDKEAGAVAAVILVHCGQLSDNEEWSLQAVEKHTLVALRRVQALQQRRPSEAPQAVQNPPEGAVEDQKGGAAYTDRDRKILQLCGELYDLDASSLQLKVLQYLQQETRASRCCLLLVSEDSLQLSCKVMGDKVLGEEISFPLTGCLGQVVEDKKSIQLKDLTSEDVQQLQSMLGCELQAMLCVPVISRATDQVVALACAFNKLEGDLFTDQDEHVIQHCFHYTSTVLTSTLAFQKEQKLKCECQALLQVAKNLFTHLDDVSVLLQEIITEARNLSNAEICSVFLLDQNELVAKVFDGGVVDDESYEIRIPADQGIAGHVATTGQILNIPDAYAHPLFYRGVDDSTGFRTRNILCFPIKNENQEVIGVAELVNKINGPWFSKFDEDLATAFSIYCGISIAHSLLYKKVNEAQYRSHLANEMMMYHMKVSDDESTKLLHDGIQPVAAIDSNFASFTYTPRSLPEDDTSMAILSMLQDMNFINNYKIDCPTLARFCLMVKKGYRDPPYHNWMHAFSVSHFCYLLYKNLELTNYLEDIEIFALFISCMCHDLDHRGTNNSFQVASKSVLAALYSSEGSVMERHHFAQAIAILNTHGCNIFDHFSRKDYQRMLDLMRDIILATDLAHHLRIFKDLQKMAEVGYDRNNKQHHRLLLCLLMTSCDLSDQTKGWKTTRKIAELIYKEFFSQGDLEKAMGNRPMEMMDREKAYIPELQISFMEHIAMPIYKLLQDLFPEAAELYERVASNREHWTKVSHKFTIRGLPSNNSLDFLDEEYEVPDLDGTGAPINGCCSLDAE
Assay: PDE2 fluorescence polarization (IMAP FP) inhibition assay, rhesus PDE2A3
Type: biochemical, rhesus macaque
Procedure, shortened: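 Enzyme source was the lysate supernatant of AD293 cells transiently expressing rhesus PDE2A3, diluted to give 20% conversion of 50 nM FAM-cAMP, with 1 µM cGMP as activator. Buffer was 10 mM Tris pH 7.2, 10 mM MgCl2, 1 mM DTT.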

[1] = Lab A, read-out: Rhesus PDE2 Ki (nM) Lab A
[2] = Lab B, read-out: Rhesus PDE2 Ki (nM) Lab B

Compound	Ki [1]	Ki [2]
Cc1nc2c(c(CO)nn2C(C)c2ccc(OC(F)(F)F)c(F)c2)c(=O)[nH]1 (single isomer, unassigned) [Example 10, (R)- or (S)-1-(1-(3-Fluoro-4-(trifluoromethoxy)phenyl)ethyl)-3-(hydroxymethyl)-6-methyl-1H-pyrazolo[3,4-d]pyrimidin-4(5H)-one]	39 nM	103 nM
Cc1nc2c(c(CO)nn2C(C)c2ccc(OC(F)(F)F)c(F)c2)c(=O)[nH]1 (single isomer, unassigned) [Example 11, (S)- or (R)-1-(1-(3-Fluoro-4-(trifluoromethoxy)phenyl)ethyl)-3-(hydroxymethyl)-6-methyl-1H-pyrazolo[3,4-d]pyrimidin-4(5H)-one]	0.85 nM	2 nM
Cc1nc2c(c(CO)nn2C(C)c2ccc(C(F)(F)F)c(F)c2)c(=O)[nH]1 (single isomer, unassigned) [Example 12, (R)- or (S)-1-(1-(3-Fluoro-4-(trifluoromethyl)phenyl)ethyl)-3-(hydroxymethyl)-6-methyl-1H-pyrazolo[3,4-d]pyrimidin-4(5H)-one]	278 nM	514 nM
Cc1nc2c(c(CO)nn2C(C)c2ccc(C(F)(F)F)c(F)c2)c(=O)[nH]1 (single isomer, unassigned) [Example 13, (S)- or (R)-1-(1-(3-Fluoro-4-(trifluoromethyl)phenyl)ethyl)-3-(hydroxymethyl)-6-methyl-1H-pyrazolo[3,4-d]pyrimidin-4(5H)-one]	1.3 nM	3 nM
Cc1nc2c(c(CO)nn2C(C)c2ccc(C(F)(F)F)cc2)c(=O)[nH]1 (single isomer, unassigned) [Example 26, (R)- or (S)-3-(Hydroxymethyl)-6-methyl-1-{1-[4-(trifluoromethyl)phenyl]ethyl}-1,5-dihydro-4H-pyrazolo[3,4-d]pyrimidin-4-one]	216 nM	456 nM
Cc1nc2c(c(CO)nn2C(C)c2ccc(C(F)(F)F)cc2)c(=O)[nH]1 (single isomer, unassigned) [Example 27, (S)- or (R)-3-(Hydroxymethyl)-6-methyl-1-{1-[4-(trifluoromethyl)phenyl]ethyl]-1,5-dihydro-4H-pyrazolo[3,4-d]pyrimidin-4-one]	2 nM	2.1 nM
Cc1nc2c(c(C)nn2C(C)c2ccc(C(F)(F)F)cc2)c(=O)[nH]1 (single isomer, unassigned) [Example 36]	443 nM	–
Cc1nc2c(c(C)nn2C(C)c2ccc(C(F)(F)F)cc2)c(=O)[nH]1 (single isomer, unassigned) [Example 37]	23 nM	–
Cc1nc2c(c(CO)nn2C(c2ccc(OC(F)(F)F)cc2)C2CC2)c(=O)[nH]1 (single isomer, unassigned) [Example 94, (R)- or (S)-1-(Cyclopropyl(4-(trifluoromethoxy)phenyl)methyl)-3-(hydroxymethyl)-6-methyl-1H-pyrazolo[3,4-d]pyrimidin-4(5H)-one]	–	18 nM
Cc1nc2c(c(CO)nn2C(c2ccc(OC(F)(F)F)cc2)C2CC2)c(=O)[nH]1 (single isomer, unassigned) [Example 95, (S)- or (R)-1-(Cyclopropyl(4-(trifluoromethoxy)phenyl)methyl)-3-(hydroxymethyl)-6-methyl-1H-pyrazolo[3,4-d]pyrimidin-4(5H)-one]	–	2.1 nM
Cc1nc2c(c(CO)nn2C(c2ccc(OC(F)(F)F)c(F)c2)C(C)C)c(=O)[nH]1 (single isomer, unassigned) [Example 126, (R)- or (S)-1-(1-(3-Fluoro-4-(trifluoromethoxy)phenyl)-2-methylpropyl)-3-(hydroxyl-methyl)-6-methyl-1H-pyrazolo-[3,4-d]pyrimidin-4(5H)-one]	–	6 nM
Cc1nc2c(c(CO)nn2C(c2ccc(OC(F)(F)F)c(F)c2)C(C)C)c(=O)[nH]1 (single isomer, unassigned) [Example 127, (S)- or (R)-1-(1-(3-Fluoro-4-(trifluoromethoxy)phenyl)-2-methylpropyl)-3-(hydroxymethyl)-6-methyl-1H-pyrazolo[3,4-d]pyrimidin-4(5H)-one]	–	0.9 nM
Cc1nc2c(c(CO)nn2C(c2ccc(C(F)(F)F)c(F)c2)C(C)(C)C)c(=O)[nH]1 (single isomer, unassigned) [Example 129, (S)- or (R)-1-(1-(3-Fluoro-4-(trifluoromethyl)phenyl)-2,2-dimethylpropyl)-3-(hydroxyl-methyl)-6-methyl-1H-pyrazolo-[3,4-d]pyrimidin-4(5H)-one]	–	6.9 nM
CCC(c1ccc(C(F)(F)F)cc1)n1nc(CO)c2c(=O)[nH]c(C)nc21 (single isomer, unassigned) [Example 132, (R)- or (S)-3-(Hydroxymethyl)-6-methyl-1-(1-(4-(trifluoro-methyl)phenyl)propyl)-1H-pyrazolo[3,4-d]pyrimidin-4(5H)-one]	–	1.5 nM
Cc1nc2c(c(C(F)F)nn2C(C)c2ccc(C(F)(F)F)cc2)c(=O)[nH]1 (single isomer, unassigned) [Example 176]	–	1.4 nM
Cc1nc2c(c(C(F)F)nn2C(C)c2ccc(OC(F)F)cc2)c(=O)[nH]1 (single isomer, unassigned) [Example 182, (S)- or (R)-1-(1-(4-(Difluoromethoxy)phenyl)ethyl)-3-(difluoromethyl)-6-methyl-1H-pyrazolo[3,4-d]pyrimidin-4(5H)-one]	–	1.2 nM
COc1ccc(Cc2nc3c(c(C(F)F)nn3C(C)c3ccc(C(F)(F)F)cc3)c(=O)[nH]2)cc1OC (single isomer, unassigned) [Example 196]	–	28 nM
COc1ccc(Cc2nc3c(c(C(F)F)nn3C(C)c3ccc(C(F)(F)F)cc3)c(=O)[nH]2)cc1OC (single isomer, unassigned) [Example 197]	–	~0.15 nM
Cc1nc2c(c(CF)nn2C(C)c2ccc(S(F)(F)(F)(F)F)cc2)c(=O)[nH]1 (single isomer, unassigned) [Example 200]	–	2.4 nM
Cc1nc2c(c(CF)nn2C(C)c2ccc(OC(F)(F)F)cc2)c(=O)[nH]1 (single isomer, unassigned) [Example 206, (R)- or (S)-3-(Fluoromethyl)-6-methyl-1-(1-(4-(trifluoro-methoxy-)phenyl)ethyl)-1H-pyrazolo[3,4-d]pyrimidin-4(5H)-one]	41 nM	123 nM
Cc1nc2c(c(CF)nn2C(C)c2ccc(OC(F)(F)F)cc2)c(=O)[nH]1 (single isomer, unassigned) [Example 207, (S)- or (R)-3-(Fluoromethyl)-6-methyl-1-(1-(4-(trifluoromethoxy)phenyl)ethyl)-1H-pyrazolo[3,4-d]pyrimidin-4(5H)-one]	0.46 nM	0.84 nM
Cc1nc2c(c(CF)nn2C(c2ccc(C(F)(F)F)cc2)C2(C)CC2)c(=O)[nH]1 (single isomer, unassigned) [Example 209]	–	1 nM
Cc1nc2c(c(CF)nn2C(C)c2ccc(CC(F)(F)F)cc2)c(=O)[nH]1 (single isomer, unassigned) [Example 211, (S)- or (R)-3-(Fluoromethyl)-6-methyl-1-(1-(4-(2,2,2-trifluoroethyl)phenyl)ethyl)-1H-pyrazolo[3,4-d]pyrimidin-4(5H)-one]	–	0.49 nM
Cc1nc2c(c(CF)nn2C(c2ccc(C(F)(F)F)cc2)C(C)C)c(=O)[nH]1 (single isomer, unassigned) [Example 212, (R)- or (S)-3-(Fluoromethyl)-6-methyl-1-(2-methyl-1-(4-(trifluoromethyl)phenyl)propyl)-1H-pyrazolo[3,4-d]pyrimidin-4(5H)-one]	–	54 nM
Cc1nc2c(c(CF)nn2C(c2ccc(C(F)(F)F)cc2)C(C)C)c(=O)[nH]1 (single isomer, unassigned) [Example 213, (S)- or (R)-3-(Fluoromethyl)-6-methyl-1-(2-methyl-1-(4-(trifluoromethyl)phenyl)propyl)-1H-pyrazolo[3,4-d]pyrimidin-4(5H)-one]	–	0.15 nM
Cc1nc2c(c(CF)nn2C(C)c2ccc(C(C)(C)C)cc2)c(=O)[nH]1 (single isomer, unassigned) [Example 214, (R)- or (S)-1-(1-(4-tert-Butylphenyl)ethyl)-3-(fluoromethyl)-6-methyl-1H-pyrazolo[3,4-d]pyrimidin-4(5H)-one]	179 nM	318 nM
Cc1nc2c(c(CF)nn2C(C)c2ccc(C(C)(C)C)cc2)c(=O)[nH]1 (single isomer, unassigned) [Example 215, (S)- or (R)-1-(1-(4-tert-Butylphenyl)ethyl)-3-(fluoromethyl)-6-methyl-1H-pyrazolo[3,4-d]pyrimidin-4(5H)-one]	0.24 nM	0.63 nM
